The target in experiment [1] is T1, human recombinant ghrelin receptor (GHS-R1a) (Homo sapiens, UniProt Q92847).
T1 construct: host or cells: CHO-K1
Description: Calcium assay, CHO-K1 cells expressing hGHS-R1a (Fluo-4). It is filed as cell-based. As for the experimental part:
(§1) Chinese hamster ovary (CHO-K1) cells expressing human recombinant ghrelin receptor (GHS-R1a) were purchased from Euroscreen (ES-410-C) and propagated in UltraCHO medium containing glutamine and supplemented with 1% heat inactivated foetal calf serum (FCS), 100 U/ml penicillin, 100 mg/l streptomycin and 0.8 g/l geneticin. Cells were sub-cultured twice a week with a 1:10 dilution. For passaging, cells were washed with 1× DPBS without calcium and magnesium, trypsinised for 10 min with 0.05% Trypsin/EDTA and resuspended in cell culture medium.
Cells were diluted to achieve 1×10^6 cells/ml, seeded in 384-well black clear bottom CellBind plates at 25000 cells/well (25u1) and incubated overnight at 37° C./5% CO2 Cells were expected to be 85-90% confluent on the day of assay (checked under the microscope) to ensure a high quality assay. Media was manually removed and 40 μl of loading solution containing probenecid and Fluo-4 no wash dye (a calcium indicator, Invitrogen F36206) were added to each well. After 30 min at 37° C. followed by another 30 min at RT, cpds were added to the wells. To generate a dose response up to 30 μM, 10 mM compound stocks in 100% (v/v) DMSO were firstly diluted in 50% (v/v) DMSO. Then, serial dilutions aimed at a full logarithmic dose responses (8 point) were performed in assay buffer [1×HBSS, 20 mM Hepes, 0.1% (w/v) BSA] to give 2.5% (v/v) DMSO and 5× final compound concentrations. The final assay DMSO concentration was 0.5% (v/v). After loading the cells with Fluo-4 containing solution, plates were read on a CeIlLux instrument (Perkin Elmer). A protocol set up to add 10 μl of 5× compound and to read the plate for 60sec after adding the compound at 17th sec was used. Fluorescence excitation took place at 494 nm and emission at 516 nm. EC50 values of agonists were calculated by fitting the percent stimulation over background [(Max-Min)/Min] using the nonlinear logistic function of the Prism 5 software (GraphPad, USA).

Experiment [2] deals with T1, human recombinant ghrelin receptor (GHS-R1a). As to the kind of experiment: cAMP assay (HTRF), CHO-hGHS-R1a cells. It is filed as cell-based. Conditions: relative to the ghrelin response (defined as 100%). The protocol:
as §1
The Homogeneous Time-Resolved Fluorescence (HTRF) cAMP dynamic 2 kit (Cisbio International, France) was used as follows. CHO-hGHS—R1a or CHO-rGHS—R1a cells were seeded in a volume of 25 μl culture media at 10,000 cells/well (400,000 cells/ml) in Greiner white 384-well high volume plates and incubated overnight (18-24 h) at 37° C./5% CO2. Then, media was removed and 6 μl assay buffer [HBSS, 10 mM Hepes, 0.2% (w/v) BSA, 1.7 mM IBMX, (pH7.4)] were added to the wells. To generate a dose response up to 30 μM, 10 mM compound stocks in 100% (v/v) DMSO were firstly diluted in 50% (v/v) DMSO followed by a further dilution into assay buffer. Then, 4 μl of 2.5× compound (dose response as 9 point log serial dilution in assay buffer from 30 μM as maximum concentration) were added to each well achieving a final DMSO assay concentration of 0.8% (v/v). 0.1 μM forskolin was added as positive control. After 30 min (rGHS—R1a cell line) or 60 min (hGHS—R1a cell line) incubation at 37° C./5% CO2, 5 μl of cAMP-d2 and 5 μl of anti-cAMP antibody-cryptate, (both made in lysis buffer), were added to the plate followed by 1 h incubation at RT. During this time, cAMP produced by the cells competed with cAMP-d2 for the anti-cAMP antibody-cryptate molecule. Then, the plate was read on the Pherastar instrument (BMG, Germany) at two different emission wavelengths ([…]). Increasing levels of endogenous cAMP produced by cells could be followed by a decrease of FRET fluorescent signal and viceversa. Values represented by a change in arbitrary fluorescence ratios (665/620) were converted into cAMP concentrations by using a standard curve, the reagents for which were supplied with the kit. EC50 values of agonists were calculated using the nonlinear logistic function of the Prism 5 software (GraphPad, USA). Emax were expressed as relative values of the ghrelin response, which was defined as 100%.
(In general: cAMP levels reflect the balance of adenylyl cyclase and phosphodiesterase activity.)

The subject of a further experiment is rat fundus. As to the kind of experiment: Rat fundus contractility assay (EFS-induced contraction of muscle strips). As to conditions: for EC50: increase of EFS-induced contraction, mean of preparations from at least 3 animals; for Emax/% / Emax: relative to the response to ghrelin (100 nM), defined as 100%. As for the experimental part:
Male Sprague Dawley rats (180-250 g) were culled by cervical dislocation and the fundus was removed. Each fundus was placed on a Krebs Henseleit (KH) buffer soaked dissection dish and cut along the long curvature to form a flattened sheet that was pinned in each corner. Four adjacent longitudinal strips (10×3 mm) were cut and the mucosa removed by sharp dissection. Each muscle strip was mounted in a 10 ml organ bath containing oxygenated KH at 37° C. Each strip was connected to an isometric force transducer, calibrated initially using a 5 g weight. The signal (g tension) was amplified and responses recorded by a Powerlab data capture system, connected to a computer running Labchart software (version 5.0). Tissues were placed under 1 g tension for an equilibration period of 30 min or until the baseline tension had stabilised. Carbachol (CCh, 100 nM) was then administered to establish the maximum contractile response of each preparation. Tissues were washed thoroughly and left for 30 min to re-equilibrate. Next, the muscle strips underwent electrical field stimulation (EFS). Maximal EFS pulse trains of 12V, 5 Hz, 0.1 msec pulse width, for 2 sec every 60 sec were applied until consistent electrically-stimulated phasic contractions were recorded. The voltage was then reduced in 1V increments until a consistent submaximal (EC50-75) EFS response was observed. Ghrelin (100 nM) was administered and left until a maximum response was obtained. Tissues were then washed thoroughly and left for 30 min. Once the EFS-induced contraction had re-stabilised, cumulative additions (10 nM-10 μM) of each test compound were administered. Individual responses were calculated by determining the peak of the EFS-induced contraction minus the baseline. […] The mean EC50 value for compounds was generated from data obtained on stomach preparations from at least 3 different animals.

Setting [3] is: CHO-K1, relative to the Emax induced by MK-0677 (defined as 100%), read-out: hGHS-R1a Ca assay Emax/%.

In general, EC50 refers to the concentration needed to bring the measured effect to its halfway point. Read a high EC50 as a need for much substance.

Each structure is given as a SMILES string.

T1 sequence (Q92847 whole entry): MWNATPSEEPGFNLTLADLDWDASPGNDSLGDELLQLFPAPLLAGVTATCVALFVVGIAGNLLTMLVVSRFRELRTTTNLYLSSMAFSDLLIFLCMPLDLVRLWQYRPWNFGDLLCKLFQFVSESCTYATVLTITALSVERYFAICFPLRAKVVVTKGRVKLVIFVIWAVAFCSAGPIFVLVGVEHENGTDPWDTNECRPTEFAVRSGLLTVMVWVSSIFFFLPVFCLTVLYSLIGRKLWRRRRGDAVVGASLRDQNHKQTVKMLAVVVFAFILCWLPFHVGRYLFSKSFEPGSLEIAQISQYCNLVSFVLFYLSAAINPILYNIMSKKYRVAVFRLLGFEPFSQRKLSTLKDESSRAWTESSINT

Turning to `CN1CC(c2ccccc2)C2(CCCN(C(=O)[C@@H](CCc3ccccc3)NC(=O)C(C)(C)N)C2)C1=O` (single isomer, unassigned) [Example 1.28], the Emax in experiment [1] (setting [3]) is 106%; in experiment [2], 194%.

In the case of `CC(C)N1CC(c2ccccc2)C2(CCCN(C(=O)[C@@H](COCc3ccccc3)NC(=O)C(C)(C)N)C2)C1=O` (single isomer, unassigned) [Example 1.6], in the experiment with rat fundus, the concentration for a half-maximal effect (EC50) amounted to 373 nM and the Emax/% is 70%.

With `CN1N=C(c2ccccc2)C2(CCCN(C(=O)[C@@H](COCc3ccccc3)NC(=O)C(C)(C)N)C2)C1=O` (mixture of isomers) [Example 1.47, 2-Amino-N-[(R)-1-benzyloxymetnyl-2-(3-methyl-4-oxo-1-phenyl-2,3,7-triaza-spiro[4.5]dec-1-en-7-yl)-2-oxo-ethyl]-2-methyl-propionamide], the Emax in experiment [1] (setting [3]) was 104%; in experiment [2], 145%.

For the compound `COc1ccc(C2CN(C)C(=O)C23CCCN(C(=O)[C@@H](COCc2ccccc2)NC(=O)C(C)(C)N)C3)cc1` (stereo partly drawn) [Example 1.74, 2-amino-N-((2R)-3-(benzyloxy)-1-(4-(4-methoxyphenyl)-2-methyl-1-oxo-2,7-diazaspiro[4.5]decan-7-yl)-1-oxopropan-2-yl)-2-methylpropanamide], the Emax in experiment [1] (setting [3]) worked out at 103%; in experiment [2], 123%.

`CC(C)(N)C(=O)N[C@H](COCc1ccccc1)C(=O)N1CCCC2(C1)C(=O)NCC2c1ccccc1` (single isomer, unassigned) [Example 1.4]: in experiment [1] (setting [3]), the Emax stood at 100%. For the same compound, the “hGHS-R1a cAMP assay Emax/%” value in experiment [2] is 127%.

In the case of `CC(C)N1CC(c2ccc(F)cc2)C2(CCCN(C(=O)[C@@H](COCc3ccccc3)NC(=O)C(C)(C)N)C2)C1=O` (single isomer, unassigned) [Example 1.18], the Emax with rat fundus (Rattus norvegicus) turned out to be 117%. The compound also gave an EC50 in the experiment with rat fundus of 148 nM.

Regarding `Cc1ccc(C2CN(C)C(=O)C23CCCN(C(=O)[C@@H](COCc2ccccc2)NC(=O)C(C)(C)N)C3)cc1` (single isomer, unassigned) [Example 1.53], the Emax was found to be 89% in experiment [1] (setting [3]) and 212% in experiment [2].

As for `CN1CC(c2ccccc2)C2(CCCN(C(=O)[C@@H](COCc3ccc(F)cc3)NC(=O)C(C)(C)N)C2)C1=O` (single isomer, unassigned) [Example 7.0, 2-Amino-N—[(R)-1-(4-fluoro-benzyloxymethyl)-2-(4S,5R)-2-methyl-1-oxo-4-phenyl-2,7-diaza-spiro[4.5]clec-7-yl)-2-oxo-ethyl]-2-methyl-propionamide or 2-Amino-N—[(R)-1-(4-fluoro-benzyloxymethyl)-2-(4R,5S)-2-methyl-1-oxo-4-phenyl-2,7-diaza-spiro[4.5]clec-7-yl)-2-oxo-ethyl]-2-methyl-propionamide], the values for the Emax in experiment [1] (setting [3]) and in experiment [2] were 83% and 153%, respectively.

With `CN1CC(c2ccccc2)C2(CCCN(C(=O)[C@@H](COCc3ccccc3)NC(=O)C(C)(N)C(F)(F)F)C2)C1=O` (stereo partly drawn) [Example 1.73, 2-amino-N-((2R)-3-(benzyloxy)-1-(2-methyl-1-oxo-4-phenyl-2,7-diazaspiro[4.5]decan-7-yl)-1-oxopropan-2-yl)-3,3,3-trifluoro-2-methylpropanamide], the Emax in experiment [1] (setting [3]) is 79%; in experiment [2], 1%.

In the experiment on rat fundus, `CN1C(=O)C2(CCCN(C(=O)[C@@H](COCc3ccccc3)NC(=O)C(C)(C)N)C2)C1c1ccccc1` (single isomer, unassigned) [Example 2.0(iii)] had a 50% effective concentration (EC50) of 70 nM and an Emax/% of 70%.

Regarding `CC(C)(C)CN1CC(c2ccccc2)C2(CCCN(C(=O)[C@@H](COCc3ccccc3)NC(=O)C(C)(C)N)C2)C1=O` (stereo partly drawn) [Example 1.75, 2-amino-N-((2R)-3-(benzyloxy)-1-(2-neopentyl-1-oxo-4-phenyl-2,7-diazaspiro[4.5]decan-7-yl)-1-oxopropan-2-yl)-2-methylpropanamide], the Emax in experiment [1] (setting [3]) came to 87%; in experiment [2] it was 176%.

Turning to `CCN1CC(c2ccccc2)C2(CCCN(C(=O)[C@@H](COCc3ccccc3)NC(=O)C(C)(C)N)C2)C1=O` (single isomer, unassigned) [Example 1.25], the Emax in experiment [1] (setting [3]) is 103%; in experiment [2], 223%.

Take `CN1CN(c2ccccc2)C2(CCCN(C(=O)[C@@H](COCc3ccccc3)NC(=O)C(C)(C)N)C2)C1=O` (single isomer, unassigned) [Example 1.61]: the Emax in experiment [1] (setting [3]) was 73%; in experiment [2], 189%.

`Cc1ccc(COC[C@@H](NC(=O)C(C)(C)N)C(=O)N2CCCC3(C2)C(=O)N(C)CC3c2ccccc2)cc1` (single isomer, unassigned) [Example 1.55]: the Emax in experiment [1] (setting [3]) was 94%; in experiment [2] it was 191%.

As for `CC(C)N1CC(c2ccccc2)C2(CCCN(C(=O)[C@@H](Cc3c[nH]c4ccccc34)NC(=O)C(C)(C)N)C2)C1=O` (single isomer, unassigned) [Example 3.0(ii)], in the experiment on rat fundus (Rattus norvegicus), a half-maximal response (EC50) required 15 nM and the Emax is 85%.

On to `CC(C)(N)C(=O)N[C@H](COCc1ccccc1)C(=O)N1CCC2(CC1)CN(S(C)(=O)=O)c1ccccc12` [MK-0677, reference compound], for which, in experiment [1] (compared with ghrelin), the Emax entry was “same Emax as ghrelin”.

Consider `CC(C)(N)C(=O)N[C@H](COCc1ccccc1)C(=O)N1CCCC2(C1)C(=O)NCC2c1ccccc1` (single isomer, unassigned) [Example 1.49], for which the “hGHS-R1a cAMP assay Emax/%” value in experiment [2] amounted to 88%.

In the experiment on rat fundus, `CN1CC(c2ccccc2)C2(CCCN(C(=O)[C@@H](CCCc3ccccc3)NC(=O)C(C)(C)N)C2)C1=O` (single isomer, unassigned) [Example 1.33] yielded a half-maximal effective concentration (EC50) of 84 nM and an Emax/% of 131%.

In the experiment on rat fundus, `CC(C)N1CC(c2ccc(F)cc2)C2(CCCN(C(=O)[C@@H](COCc3ccccc3)NC(=O)C(C)(C)N)C2)C1=O` (single isomer, unassigned) [Example 1.19] displayed an EC50 of 23 nM and an Emax/% of 124%.

The record behind these values is patent publication US20130296358A1, “3-SPIROCYCLIC PIPERIDINE DERIVATIVES AS GHRELIN RECEPTOR AGONISTS” (priority 2012, published 2013).
